Data set [1] can be described thus: Alcohol solubility of E6020 and MPL in ethanol by nephelometry.
Procedure: The appearance and increase of opalescence, indicative of insolubility was followed by nephelometry.
RNU (Relative nephelometry Unit) of each solution was recorded and plotted on a graph.
The next data set deals with sheep red blood cells. The experiment in a line: Hemolysis assay. The format is cell-based. To be noted: 30 minutes at 37° C. As for the experimental part: Before use, red blood cells (Sheep red blood cells 10%, Rockland, ref R405-0050, lot BP30202 (stored+4° C.) were washed in cold PBS. Five mL of sheep red blood cells were transferred into a 15 mL Falcon tube and 7 mL of cold PBS were added. Cells were centrifuged for 10 min 700 g at 4° C. Supernatant was carefully removed and cell pellet was suspended in 12 mL of cold PBS. Then, cell suspension was centrifuged for 10 min, 700 g at 4° C. The cell suspension and centrifugation steps were repeated twice. Finally, cells were suspended in PBS in a final volume of 5 mL ready-to-use.
In a round bottom P96 plate, 100 μL per well of PBS were added. Then, 100 μL per well of saponin QS21 or QS7 solutions were added in serial 2-fold dilutions (1.6 μM to 200 μM-) in a citrate buffer (Citrate 10 mM, NaCl 140 mM, pH 6.3). […]
Twenty-five μL/well of 10% red blood cell solution were added, and the plates were incubated for 30 minutes at 37° C. and then were centrifuged for 5 min 700 g at room temperature. Eighty μL per well of surnageant were collected and transfered to a flat bottom plate for spectrophotometer reading (OD 540 nm). The percentage of cell hemolysis is calculated for each saponin concentration tested in μM according to the formula: 100×[(sample absorbance−negative control absorbance)[…](positive control absorbance−negative control absorbance)]. […]

For the substance “3-O-desacyl-4′-monophosphoryl lipid A [MPL]”, the “appearance of ethanol solution (opalescence)” value in data set [1] (0.5, 1.0, 2.0 and 10 mg/ml in absolute ethanol, mixed 3h at room temperature) is on record as “opalescent even at the lowest concentration tested”. Further, the solubility in ethanol result in data set [1] (absolute ethanol, room temperature (about 25° C.), nephelometry) is “very low solubility”.

As for QS21, the EC50 in the data set with sheep red blood cells (read-out: effective concentration inducing hemolysis of 50% red blood cells (EC50)) is 4.2 µM. The substance further returned an erythrocyte hemolysis with sheep red blood cells (from 25 μM to 100 μM) of 100%.

The record behind these values is patent US20230398211A1, “Liposomes Containing TLR4 Agonist, Preparation and Uses Thereof” (priority 2020, published 2023).
